ChEMBL document CHEMBL3526048, “In vitro metabolism of rivoglitazone, a novel peroxisome proliferator-activated receptor γ agonist, in rat, monkey, and human liver microsomes and freshly isolated hepatocytes” (Drug Metab Dispos, 2011)

Legend:
[1] = target: T1, UDP-glucuronosyltransferase 1A7 (Homo sapiens, UniProt Q9HAW7); test: Activity of human UGT1A7 expressed in microsomes isolated from baculovirus infected insect cell assessed as enzyme-mediated 2-mercapto-3-(4-((6-methoxy-1-methyl-1H-benzo[d]imidazol-2-yl)methoxy)phenyl)propanoic acid formation at 20 uM after 4 hrs by radio-HPLC/LC-MS/MS analysis in presence of UDPGA; assay type: ADME
T1 sequence (Q9HAW7 whole entry): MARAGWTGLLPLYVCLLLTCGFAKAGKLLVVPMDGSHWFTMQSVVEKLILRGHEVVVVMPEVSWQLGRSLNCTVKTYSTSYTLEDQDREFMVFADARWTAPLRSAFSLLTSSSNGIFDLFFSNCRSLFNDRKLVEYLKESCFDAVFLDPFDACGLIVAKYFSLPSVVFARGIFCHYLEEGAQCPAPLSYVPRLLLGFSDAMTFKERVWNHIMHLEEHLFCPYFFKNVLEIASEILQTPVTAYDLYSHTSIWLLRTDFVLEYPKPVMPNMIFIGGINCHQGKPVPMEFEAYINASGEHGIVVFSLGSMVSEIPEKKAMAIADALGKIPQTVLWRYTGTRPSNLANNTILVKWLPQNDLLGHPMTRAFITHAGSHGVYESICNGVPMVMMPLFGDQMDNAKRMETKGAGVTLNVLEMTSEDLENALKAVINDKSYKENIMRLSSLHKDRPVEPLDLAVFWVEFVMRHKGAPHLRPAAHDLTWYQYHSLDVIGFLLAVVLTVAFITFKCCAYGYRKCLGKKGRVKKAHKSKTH

Liver microsome = test: Drug metabolism in Sprague-Dawley rat liver microsomes assessed as formation of 3-(4-((6-methoxy-1-methyl-1H-benzo[d]imidazol-2-yl)methoxy)phenyl)-2-(methylsulfonyl)propanamide at 20 uM after 2 hrs by radio-HPLC/LC-MS/MS analysis in presence of NADPH-generating system/SAM; assay type: ADME
[2] = target: T2, UDP-glucuronosyltransferase 1A3 (Homo sapiens, UniProt P35503); test: Activity of human UGT1A3 expressed in microsomes isolated from baculovirus infected insect cell assessed as enzyme-mediated 5-hydroxy-5-(4-((6-methoxy-1-methyl-1H-benzo[d]imidazol-2-yl)methoxy)benzyl)thiazolidine-2,4-dione formation at 20 uM after 4 hrs by radio-HPLC/LC-MS/MS analysis in presence of NADPH-generating system and NADPH-generating system/SAM in presence of UDPGA and UDPGA/SAM; assay type: ADME
T2 sequence (P35503 whole entry): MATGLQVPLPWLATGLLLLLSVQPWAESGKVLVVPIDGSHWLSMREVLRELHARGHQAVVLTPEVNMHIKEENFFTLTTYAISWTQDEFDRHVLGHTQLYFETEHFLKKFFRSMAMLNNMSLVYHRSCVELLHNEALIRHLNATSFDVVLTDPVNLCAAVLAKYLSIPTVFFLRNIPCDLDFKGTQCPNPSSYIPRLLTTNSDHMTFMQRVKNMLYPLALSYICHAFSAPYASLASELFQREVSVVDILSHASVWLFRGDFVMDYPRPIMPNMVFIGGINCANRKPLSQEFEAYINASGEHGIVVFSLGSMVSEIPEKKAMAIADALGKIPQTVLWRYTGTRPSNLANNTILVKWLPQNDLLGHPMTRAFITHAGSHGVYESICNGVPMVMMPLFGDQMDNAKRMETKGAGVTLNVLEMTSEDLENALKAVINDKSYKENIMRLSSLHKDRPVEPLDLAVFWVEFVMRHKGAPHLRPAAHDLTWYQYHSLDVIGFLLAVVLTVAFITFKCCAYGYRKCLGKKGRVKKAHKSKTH

Cytochrome P450 3A4 = Cytochrome P450 3A4 (Homo sapiens, UniProt P08684); test: Activity of human CYP3A4 expressed in microsomes isolated from baculovirus infected insect cell assessed as enzyme-mediated 3-(4-((6-methoxy-1-methyl-1H-benzo[d]imidazol-2-yl)methoxy)phenyl)-2-(methylsulfinyl)propanamide formation at 20 uM after 2 hrs by radio-HPLC/LC-MS/MS analysis in presence of NADPH-generating system/SAM; assay type: ADME
[3] = target: T3, UDP-glucuronosyltransferase 1A4 (Homo sapiens, UniProt P22310); test: Activity of human UGT1A4 expressed in microsomes isolated from baculovirus infected insect cell assessed as enzyme-mediated 2-mercapto-3-(4-((6-methoxy-1-methyl-1H-benzo[d]imidazol-2-yl)methoxy)phenyl)propanoic acid formation at 20 uM after 4 hrs by radio-HPLC/LC-MS/MS analysis in presence of UDPGA; assay type: ADME
T3 sequence (P22310 whole entry): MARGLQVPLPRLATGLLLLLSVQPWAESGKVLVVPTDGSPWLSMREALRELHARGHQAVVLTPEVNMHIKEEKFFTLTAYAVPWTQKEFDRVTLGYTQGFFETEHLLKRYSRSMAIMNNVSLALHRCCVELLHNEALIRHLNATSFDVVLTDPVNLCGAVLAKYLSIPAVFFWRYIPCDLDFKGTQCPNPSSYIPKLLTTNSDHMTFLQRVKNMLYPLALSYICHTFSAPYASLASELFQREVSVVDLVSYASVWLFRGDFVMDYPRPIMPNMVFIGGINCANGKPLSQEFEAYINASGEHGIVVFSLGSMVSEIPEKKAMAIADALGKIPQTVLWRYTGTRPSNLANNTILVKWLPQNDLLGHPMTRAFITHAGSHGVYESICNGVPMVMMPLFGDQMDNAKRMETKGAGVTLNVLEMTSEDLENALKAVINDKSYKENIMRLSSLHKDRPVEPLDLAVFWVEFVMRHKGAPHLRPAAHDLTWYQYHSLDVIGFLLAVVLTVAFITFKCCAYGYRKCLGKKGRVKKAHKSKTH

[4] = Drug metabolism in cynomolgus monkey liver microsomes assessed as formation of 2-amino-3-((1-carboxy-2-(4-((6-methoxy-1-methyl-1H-benzo[d]imidazol-2-yl)methoxy)phenyl)ethyl)disulfanyl)propanoic acid at 20 uM by radio-HPLC/LC-MS/MS analysis; assay type: ADME, Macaca fascicularis
[5] = target: T4, UDP-glucuronosyltransferase 2B7 (Homo sapiens, UniProt P16662); test: Activity of human UGT2B7 expressed in microsomes isolated from baculovirus infected insect cell assessed as enzyme-mediated 3-(4-((6-methoxy-1-methyl-1H-benzo[d]imidazol-2-yl)methoxy)phenyl)-2-(methylsulfonyl)propanamide formation at 20 uM after 4 hrs by radio-HPLC/LC-MS/MS analysis in presence of NADPH-generating system/SAM; assay type: ADME
T4 sequence (P16662 whole entry): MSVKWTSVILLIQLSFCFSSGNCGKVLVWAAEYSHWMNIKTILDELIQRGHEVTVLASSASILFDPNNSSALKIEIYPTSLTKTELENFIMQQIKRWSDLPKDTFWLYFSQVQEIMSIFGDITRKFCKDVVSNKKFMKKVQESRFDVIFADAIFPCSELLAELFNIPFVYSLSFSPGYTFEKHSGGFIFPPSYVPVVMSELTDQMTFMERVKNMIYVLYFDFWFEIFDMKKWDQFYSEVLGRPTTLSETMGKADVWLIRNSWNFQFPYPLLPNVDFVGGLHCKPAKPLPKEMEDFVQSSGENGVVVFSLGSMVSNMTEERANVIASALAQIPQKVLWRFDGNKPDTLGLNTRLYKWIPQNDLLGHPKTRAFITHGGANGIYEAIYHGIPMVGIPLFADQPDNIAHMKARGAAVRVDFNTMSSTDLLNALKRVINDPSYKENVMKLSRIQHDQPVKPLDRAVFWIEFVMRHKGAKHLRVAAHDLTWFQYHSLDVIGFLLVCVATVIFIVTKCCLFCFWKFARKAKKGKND

Cytochrome P450 3A4, sequence (P08684 whole entry): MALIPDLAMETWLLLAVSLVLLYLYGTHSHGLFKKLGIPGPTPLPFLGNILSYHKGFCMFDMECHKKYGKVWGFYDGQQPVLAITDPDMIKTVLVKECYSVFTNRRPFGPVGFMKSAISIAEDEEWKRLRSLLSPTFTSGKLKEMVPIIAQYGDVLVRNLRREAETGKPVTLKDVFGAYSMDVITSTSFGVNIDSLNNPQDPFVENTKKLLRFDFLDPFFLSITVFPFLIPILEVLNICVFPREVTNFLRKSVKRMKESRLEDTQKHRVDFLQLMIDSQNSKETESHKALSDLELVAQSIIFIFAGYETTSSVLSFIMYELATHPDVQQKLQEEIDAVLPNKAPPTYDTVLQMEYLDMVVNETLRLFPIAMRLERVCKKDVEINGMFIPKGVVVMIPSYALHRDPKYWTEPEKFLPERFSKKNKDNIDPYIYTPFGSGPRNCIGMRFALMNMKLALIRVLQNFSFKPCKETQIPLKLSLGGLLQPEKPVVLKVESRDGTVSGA

- Drug metabolism [1]: metabolite_not_detected
- Drug metabolism (Liver microsome): metabolite_detected
- Drug metabolism [2]: metabolite_not_detected
- Drug metabolism (Cytochrome P450 3A4): metabolite_not_detected
- Drug metabolism [3]: metabolite_not_detected
- Drug metabolism [4]: metabolite_not_detected
- Drug metabolism [5]: metabolite_not_detected
SMILES: COc1ccc2nc(COc3ccc(C[14CH]4SC(=O)NC4=O)cc3)n(C)c2c1.Cl (racemic)
